Laboratory results reported in patent US5049547A, “Composition for stimulating integumental melanocytes” (University Patents, Inc., priority 1989, dated 1991).
Values joined by “and” are separate entries in the source; they are usually repeats but may differ in a detail not shown here. Equal values may be shown once. Read-outs that look alike come from different tables or passages of the source. Non-standard residues stand in square brackets, D forms with d. Residues, ends and D or L forms follow the SMILES beside them. dPhg = N[C@@H](C(=O)O)c1ccccc1; Nle = CCCC[C@H](N)C(=O)O

Key:
[1] = system: lizard (Anolis caroliniensis) skin; assay: in vitro lizard skin bioassay, melanosome dispersion; assay type: cell-based; conditions: alpha-MSH = 1.0
Description: (§1) Biological effect on in vivo and in vitro melanosome dispersion was examined using the frog (Rana pipiens) and the lizard (Anolis caroliniensis). [Hadley et al., ,Science 213:1025-1027(1981)]; similar examinations were conducted with respect to the duration of its ability to stimulate melanosome dispersion in vitro using the skin bioassay as described in Shimume, Endrochrinology, 54:553-560(1954). The in vitro results are depicted in Table I.

frog (Rana pipiens) skin = assay type: cell-based
Description: as §1

[2] = system: TA-98 strain of S. typhimurium; assay: Ames microbacterial assay; conditions: spontaneous revertants subtracted
Description: The Ames microbacterial assay was used for these tests which were performed both with and without a microsomal enzyme/NADPH generating system. Briefly, this test measures the number of reverse mutations which occur in special histidine-dependent strains of Salmonella typhimurium. Positives (mutations) are scored as the number of revertant cells which are able to form colonies in a histidine-deficient growth medium after exposure to a mutagenic substance.
All substances were dissolved in sterile 0.9% sodium chloride (without preservatives) to concentrations of 10^-2, 10^-3 and 10^-4 Molar. The TA-98 strain of S. typhimurium was used and experiments were performed with and without exposure to S-9 rat liver microsomal enzymes and an NADPH generating system. This enzyme cocktail can metabolically activate some compounds to mutagenic species. In addition to the melanotropins, doxorybicin (Adriamycin™) was also simultaneously tested. […] It was thus included to act as a positive control. […] For the actual evalution of revertants, the identity of the specific test compounds was blinded.

Compound | Relative Potency Lizard [1] | Relative Potency Frog (frog (Rana pipiens) skin; in vitro, alpha-MSH = 1.0) | other results
CCCC[C@H](NC(C)=O)C(=O)N[C@@H](CCC(=O)O)C(=O)N[C@@H](Cc1c[nH]cn1)C(=O)N[C@H](Cc1ccccc1)C(=O)N[C@@H](CCCNC(=N)N)C(=O)N[C@H](Cc1c[nH]c2ccccc12)C(N)=O [Ac-[Nle^4 -D-Phe^7 -D-Trp^9]-alpha-MSH4-9 -NH2] (Ac-[Nle]EH[dF]R[dW]-NH2) | 3.8 | 0.03 | 
CCCC[C@H](NC(C)=O)C(=O)N[C@@H](CCC(=O)O)C(=O)N[C@@H](Cc1c[nH]cn1)C(=O)N[C@@H](C(=O)N[C@@H](CCCNC(=N)N)C(=O)N[C@@H](Cc1c[nH]c2ccccc12)C(=O)NCC(=O)N[C@@H](CCCCN)C(N)=O)c1ccccc1 [Ac-[Nle^4 -D-Plg^7]-alpha-MSH4-11 -NH2] (Ac-[Nle]EH[dPhg]RWGK-NH2) | 0.0005 | 0.0003 | 
COc1cccc2c1C(=O)c1c(O)c3c(c(O)c1C2=O)C[C@@](O)(C(=O)CO)C[C@@H]3O[C@H]1C[C@H](N)[C@H](O)[C@H](C)O1 [Adriamycin, Doxorubicin, reference compound] |  |  | […] PLATE WITH S-9 ([2]; 10 µg/ml): 2500; […] PLATE WITHOUT S-9 ([2]; 10 µg/ml): 230; […] PLATE WITH S-9 ([2]; 1.0 g/ml): 100; […] PLATE WITHOUT S-9 ([2]; 1.0 g/ml): 0
CCCC[C@H](NC(C)=O)C(=O)N[C@@H](CCC(=O)O)C(=O)N[C@@H](Cc1ccccc1)C(=O)N[C@H](Cc1ccccc1)C(=O)N[C@@H](CCCNC(=N)N)C(=O)N[C@@H](Cc1c[nH]c2ccccc12)C(=O)NCC(=O)N[C@@H](CCCCN)C(N)=O [Ac-[Nle^4 -Phe^6 -D-Phe^7]-alpha-MSH4-11 -NH2] (Ac-[Nle]EF[dF]RWGK-NH2) |  | 0.012 | 
CCCC[C@H](NC(C)=O)C(=O)N[C@@H](CCC(=O)O)C(=O)N[C@@H](Cc1c[nH]cn1)C(=O)N[C@H](Cc1ccccc1)C(=O)N[C@@H](CCCNC(=N)N)C(=O)N[C@@H](Cc1c[nH]c2ccccc12)C(=O)NCC(N)=O [Ac-[Nle^4 -D-Phe^7]-alpha-MSH4-10 -NH2] |  | 0.02 | REVERTANTS PER PLATE WITH S-9 ([2]; 10^-2 M): 0; […] PLATE WITHOUT S-9 ([2]; 10^-2 M): 0; REVERTANTS PER PLATE WITH S-9 ([2]; 10^-3 M): 0; […] PLATE WITHOUT S-9 ([2]; 10^-3 M): 0; REVERTANTS PER PLATE WITH S-9 ([2]; 10^-4 M): 0; […] PLATE WITHOUT S-9 ([2]; 10^-4 M): 0
CCCC[C@H](NC(C)=O)C(=O)N[C@@H](CCC(=O)O)C(=O)N[C@@H](Cc1c[nH]cn1)C(=O)N[C@@H](Cc1ccccc1)C(=O)N[C@@H](CCCNC(=N)N)C(=O)N[C@@H](Cc1c[nH]c2ccccc12)C(=O)NCC(=O)N[C@@H](CCCCN)C(N)=O [Ac-[Nle^4 ]-alpha-MSH4-11 -NH2] (Ac-[Nle]EHFRWGK-NH2) |  | 0.0019 | 
Ac-[Nle^4 -D-Phe^7 -D-Arg^8 ]-alpha-MSH4- | 0.0022 |  | 
CC(=O)N[C@@H](CCC(=O)O)C(=O)N[C@@H](Cc1c[nH]cn1)C(=O)N[C@H](Cc1ccccc1)C(=O)N[C@@H](CCCNC(=N)N)C(=O)N[C@@H](Cc1c[nH]c2ccccc12)C(=O)NCC(=O)N[C@@H](CCCCN)C(N)=O [Ac-[D-Phe^7]-alpha-MSH5-11 -NH2] (Ac-EH[dF]RWGK-NH2) |  | 0.01 | 
CCCC[C@H](NC(C)=O)C(=O)N[C@@H](CCC(=O)O)C(=O)N[C@@H](Cc1c[nH]cn1)C(=O)N[C@@H](Cc1ccccc1)C(=O)N[C@@H](CCCNC(=N)N)C(=O)N[C@@H](Cc1c[nH]c2ccccc12)C(N)=O [Ac-[Nle^4]-alpha-MSH4-9 -NH2] (Ac-[Nle]EHFRW-NH2) | 0.18 | 0.0007 | 
CCCC[C@H](NC(C)=O)C(=O)N[C@@H](CCC(=O)O)C(=O)N[C@@H](Cc1c[nH]cn1)C(=O)N[C@@H](C)C(=O)N[C@@H](CCCNC(=N)N)C(=O)N[C@@H](Cc1c[nH]c2ccccc12)C(=O)NCC(=O)N[C@@H](CCCCN)C(N)=O [Ac-[Nle^4 -Ala^7]-alpha-MSH4-11 -NH2] (Ac-[Nle]EHARWGK-NH2) |  |  | Relative Potency Frog (frog (Rana pipiens) skin): 0.02
CCCC[C@H](NC(C)=O)C(=O)N[C@@H](CCC(=O)O)C(=O)N[C@@H](Cc1c[nH]cn1)C(=O)N[C@H](Cc1ccc(O)cc1)C(=O)N[C@@H](CCCNC(=N)N)C(=O)N[C@@H](Cc1c[nH]c2ccccc12)C(=O)NCC(=O)N[C@@H](CCCCN)C(N)=O [Ac-[Nle^4 -D-Tyr^7]-alpha-MSH4-11 -NH2] (Ac-[Nle]EH[dY]RWGK-NH2) | 1.0 | 0.0020 and 0.0033 | 
Ac-[Phe-Gly^7 ]-alpha-MSH4-11 -NH2 |  | 0.10 | 
CCCC[C@H](NC(C)=O)C(=O)N[C@@H](CCC(=O)O)C(=O)N[C@@H](Cc1c[nH]cn1)C(=O)N[C@H](C)C(=O)N[C@@H](CCCNC(=N)N)C(=O)N[C@@H](Cc1c[nH]c2ccccc12)C(=O)NCC(=O)N[C@@H](CCCCN)C(N)=O [Ac-[Nle^4 -D-Ala^7]-alpha-MSH4-11 -NH2] (Ac-[Nle]EH[dA]RWGK-NH2) | 0.020 | 0.000080 | 
CCCC[C@H](NC(C)=O)C(=O)N[C@@H](CCC(=O)O)C(=O)N[C@@H](Cc1c[nH]cn1)C(=O)N[C@@H](Cc1ccc(O)cc1)C(=O)N[C@@H](CCCNC(=N)N)C(=O)N[C@@H](Cc1c[nH]c2ccccc12)C(=O)NCC(=O)N[C@@H](CCCCN)C(N)=O [Ac-[Nle^4 -Tyr^7]-alpha-MSH4-11 -NH2] (Ac-[Nle]EHYRWGK-NH2) | 0.0090 |  | 
CCCC[C@H](NC(C)=O)C(=O)N[C@@H](CCC(=O)O)C(=O)N[C@@H](Cc1c[nH]cn1)C(=O)N[C@H](Cc1ccccc1)C(=O)N[C@@H](CCCNC(=N)N)C(=O)N[C@@H](Cc1ccccc1)C(=O)NCC(=O)N[C@@H](CCCCN)C(N)=O [Ac-[Nle^4 -D-Phe^7 -Phe^9]-alpha-MSH4-11 -NH2] (Ac-[Nle]EH[dF]RFGK-NH2) |  | 0.017 | 
CCCC[C@H](NC(C)=O)C(=O)N[C@@H](CCC(=O)O)C(=O)N[C@@H](Cc1c[nH]cn1)C(=O)N[C@@H](Cc1ccccc1)C(=O)N[C@H](CCCNC(=N)N)C(=O)N[C@@H](Cc1c[nH]c2ccccc12)C(=O)NCC(=O)N[C@@H](CCCCN)C(N)=O [Ac-[Nle^4 -D-Arg^8]-alpha-MSH4-11 -NH2] (Ac-[Nle]EHF[dR]WGK-NH2) | 0.0022 | 0.000016 | 
CC(=O)N[C@@H](Cc1ccc(O)cc1)C(=O)N[C@@H](CCC(=O)O)C(=O)N[C@@H](Cc1c[nH]cn1)C(=O)N[C@H](Cc1ccccc1)C(=O)N[C@@H](CCCNC(=N)N)C(=O)N[C@@H](Cc1c[nH]c2ccccc12)C(=O)NCC(=O)N[C@@H](CCCCN)C(N)=O [Ac-[Tyr^4 -D-Phe^7]-alpha-MSH4-11 -NH2] (Ac-YEH[dF]RWGK-NH2) |  | 0.01 | 
